# Measurements reported in patent US11110103B2, “Inhibitors of glucocorticoid receptor” (ORIC Pharmaceuticals, Inc., priority 2015, dated 2021).
# Target: T1, GR (Homo sapiens, UniProt P04150)
# T1 construct: expressed in transfected cells; host or cells: CHO-K1 (CHO-K1-GR-MMTV-Luc reporter cells)
# T1 sequence (P04150 1-777): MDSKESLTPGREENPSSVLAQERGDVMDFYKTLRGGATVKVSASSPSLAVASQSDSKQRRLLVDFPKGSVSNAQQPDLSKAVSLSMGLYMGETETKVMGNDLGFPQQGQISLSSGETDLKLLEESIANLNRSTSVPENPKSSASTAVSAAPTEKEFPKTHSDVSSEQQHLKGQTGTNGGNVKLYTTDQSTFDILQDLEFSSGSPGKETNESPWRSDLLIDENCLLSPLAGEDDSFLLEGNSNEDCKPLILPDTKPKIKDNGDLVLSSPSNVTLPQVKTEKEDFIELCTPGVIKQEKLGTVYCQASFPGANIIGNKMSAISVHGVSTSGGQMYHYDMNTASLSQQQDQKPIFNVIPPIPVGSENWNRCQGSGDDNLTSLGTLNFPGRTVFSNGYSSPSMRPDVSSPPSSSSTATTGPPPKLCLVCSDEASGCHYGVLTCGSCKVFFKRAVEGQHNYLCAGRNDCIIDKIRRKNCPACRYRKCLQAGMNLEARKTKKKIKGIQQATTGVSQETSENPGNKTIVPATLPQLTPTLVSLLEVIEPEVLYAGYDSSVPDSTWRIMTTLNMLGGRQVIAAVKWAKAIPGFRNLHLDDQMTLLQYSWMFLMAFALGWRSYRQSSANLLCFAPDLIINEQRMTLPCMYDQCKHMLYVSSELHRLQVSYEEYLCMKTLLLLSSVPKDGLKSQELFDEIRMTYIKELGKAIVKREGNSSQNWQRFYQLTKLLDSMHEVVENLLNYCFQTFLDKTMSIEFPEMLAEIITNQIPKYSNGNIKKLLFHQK
# Experiment: In Vitro GR Luciferase Reporter Assay (antagonist assay)
# Type: cell-based
# Settings: CHO-K1-GR-MMTV-Luc reporter cells, 10 nM Dexamethasone, 18-24 hours
# Experimental: Cell Line: CHO-K1-GR-MMTV-Luc reporter cells
# Culture Media: DMEM (with phenol red)+10% FBS
# Assay Media: DMEM (without phenol red)+10% CSS
# Culture CHO-K1-GR-MMTV-Luc reporter cells in 15 cm plates in Culture Media at conditions less than 90% confluence.
# Prepare 200×DMSO 1:5 serial dilutions of control and test compounds in 96-well non-sterile V bottom plate in DMSO, 8 serial dilutions for each compound.
# Add compounds: 5 ul of assay media diluted compounds were added to appropriate wells and followed a quick spin (1000 rpm, 10 sec) to bring media and cells to the bottom of plate. The plates were covered with SealMate film to avoid evaporation and placed in 37° C. incubator for approximately 18-24 hours.
# Read plates: Equilibrate appropriate amount of Promega OneGlo luciferase reagent to room temperature. Remove the plates from incubator and add 25 uL of OneGlo reagent/well by multiple channel pipette and read the plates with Tecan F500 luminometer within 3 minutes.
# The ability of the compounds disclosed herein to inhibit GR activity was quantified and the respective IC50 value was determined.
row,Structure (SMILES),IC50
1,CC#C[C@]1(O)CC[C@H]2[C@@H]3CCC4=CC(=O)CCC4=C3[C@@H](c3ccc(NS(=O)(=O)c4ccc(C)cc4)cc3)C[C@@]21C,> 100 nM
2,CC#C[C@]1(O)CC[C@H]2[C@@H]3CCC4=CC(=O)CCC4=C3[C@@H](c3cccc(C(C)O)c3)C[C@@]21C (some centres unmarked),> 100 nM
3,CC#C[C@]1(O)CC[C@H]2[C@@H]3CCC4=CC(=O)CCC4=C3[C@@H](c3cccc(C4CC4)c3)C[C@@]21C,< 100 nM
4,CC#C[C@]1(O)CC[C@H]2[C@@H]3CCC4=CC(=O)CCC4=C3[C@@H](c3cccc(COC)c3)C[C@@]21C,< 100 nM
5,CC#C[C@]1(O)CC[C@H]2[C@@H]3CCC4=CC(=O)CCC4=C3[C@@H](c3cccc(OC(C)C)c3)C[C@@]21C,> 100 nM
6,CC#C[C@]1(O)CC[C@H]2[C@@H]3CCC4=CC(=O)CCC4=C3[C@@H](c3cccc(C(C)(C)C)c3)C[C@@]21C,> 100 nM
7,CC#C[C@]1(O)CC[C@H]2[C@@H]3CCC4=CC(=O)CCC4=C3[C@@H](c3c(F)cc(N4CCOCC4)cc3F)C[C@@]21C,< 100 nM
8,CC#C[C@]1(O)CC[C@H]2[C@@H]3CCC4=CC(=O)CCC4=C3[C@@H](c3c(F)cc(N4CCCC4)cc3F)C[C@@]21C,< 100 nM
9,CC#C[C@]1(O)CC[C@H]2[C@@H]3CCC4=CC(=O)CCC4=C3[C@@H](c3c(F)cc(N(C)CC)cc3F)C[C@@]21C,< 100 nM
10,CC#C[C@]1(O)CC[C@H]2[C@@H]3CCC4=CC(=O)CCC4=C3[C@@H](c3c(F)cc(CC)cc3F)C[C@@]21C,< 100 nM
11,CC#C[C@]1(O)CC[C@H]2[C@@H]3CCC4=CC(=O)CCC4=C3[C@@H](c3c(F)cc(C)cc3F)C[C@@]21C,< 100 nM
12,CC#C[C@]1(O)CC[C@H]2[C@@H]3CCC4=CC(=O)CCC4=C3[C@@H](c3cc(F)c(N(C)C)cc3F)C[C@@]21C,< 100 nM
13,CC#C[C@]1(O)CC[C@H]2[C@@H]3CCC4=CC(=O)CCC4=C3[C@@H](c3c(F)cc(OC)cc3F)C[C@@]21C,< 100 nM
14,CC#C[C@]1(OC(C)=O)CC[C@H]2[C@@H]3CCC4=CC(=O)CCC4=C3[C@@H](c3cc(F)c(C)c(F)c3)C[C@@]21C,< 100 nM
15,CC#C[C@]1(OC(=O)CC)CC[C@H]2[C@@H]3CCC4=CC(=O)CCC4=C3[C@@H](c3cc(F)c(C)c(F)c3)C[C@@]21C,> 100 nM
16,CC#C[C@]1(O)CC[C@H]2[C@@H]3CCC4=CC(=O)CCC4=C3[C@@H](c3ccc4c(c3)OCCCO4)C[C@@]21C,< 100 nM
17,CC#C[C@]1(O)C2(CC2)C[C@H]2[C@@H]3CCC4=CC(=O)CCC4=C3[C@@H](c3ccc(S(=O)(=O)N(C)C)cc3)C[C@@]21C,< 100 nM
18,CC#C[C@]1(O)C2(CC2)C[C@H]2[C@@H]3CCC4=CC(=O)CCC4=C3[C@@H](c3c(F)cc(N(C)C)cc3F)C[C@@]21C,< 100 nM
19,[2H]C([2H])([2H])C#C[C@]1(O)CC[C@H]2[C@@H]3CCC4=CC(=O)CCC4=C3[C@@H](c3ccc4c(c3)OCCO4)C[C@@]21C,< 100 nM
20,CC#C[C@]1(O)CC[C@H]2[C@@H]3CCC4=CC(=O)CCC4=C3[C@@H](c3ccc(S(=O)(=O)N4CCCCC4)cc3)C[C@@]21C [drawing 181],< 100 nM
21,CC#C[C@]1(O)CC[C@H]2[C@@H]3CCC4=CC(=O)CCC4=C3[C@@H](c3ccc(S(=O)(=O)C(C)(C)C)cc3)C[C@@]21C [drawing 182],< 100 nM
22,CC#C[C@]1(O)CC[C@H]2[C@@H]3CCC4=CC(=O)CCC4=C3[C@@H](c3cccc(OCC)c3)C[C@@]21C [drawing 186],< 100 nM
23,CC#C[C@]1(O)CC[C@H]2[C@@H]3CCC4=CC(=O)CCC4=C3[C@@H](c3cc(F)cc(F)c3)C[C@@]21C [drawing 196],< 100 nM

# Other lines, results leading:
row,IC50,Structure (SMILES)
1,< 100 nM,CC#C[C@]1(O)CC[C@H]2[C@@H]3CCC4=CC(=O)CCC4=C3[C@@H](c3cccc(CC)c3)C[C@@]21C
2,< 100 nM,CC#C[C@]1(O)CC[C@H]2[C@@H]3CCC4=CC(=O)CCC4=C3[C@@H](c3ccc(C)c(F)c3)C[C@@]21C
3,< 100 nM,CC#C[C@]1(O)CC[C@H]2[C@@H]3CCC4=CC(=O)CCC4=C3[C@@H](c3ccc(C(C)C)c(OC)c3)C[C@@]21C
4,< 100 nM,CC#C[C@]1(O)CC[C@H]2[C@@H]3CCC4=CC(=O)CCC4=C3[C@@H](c3ccc(C)c(OC)c3)C[C@@]21C
5,< 100 nM,CC#C[C@]1(O)CC[C@H]2[C@@H]3CCC4=CC(=O)CCC4=C3[C@@H](c3ccc(C)c(N(C)C)c3)C[C@@]21C
6,< 100 nM,CC#C[C@]1(O)CC[C@H]2[C@@H]3CCC4=CC(=O)CCC4=C3[C@@H](c3ccc(OC)c(C(C)C)c3)C[C@@]21C
7,> 100 nM,CC#C[C@]1(O)CC[C@H]2[C@@H]3CCC4=CC(=O)CCC4=C3[C@@H](c3ccc(C)c(N4CCC4)c3)C[C@@]21C
8,> 100 nM,CC#C[C@]1(O)CC[C@H]2[C@@H]3CCC4=CC(=O)CCC4=C3[C@@H](c3ccc(F)c(OC)c3)C[C@@]21C
9,> 100 nM,CC#C[C@]1(O)CC[C@H]2[C@@H]3CCC4=CC(=O)CCC4=C3[C@@H](c3ccc(Cl)c(N(C)C)c3)C[C@@]21C
10,> 100 nM,CC#C[C@]1(O)CC[C@H]2[C@@H]3CCC4=CC(=O)CCC4=C3[C@@H](c3ccc(F)c(N(C)C)c3)C[C@@]21C
11,> 100 nM,CC#C[C@]1(O)CC[C@H]2[C@@H]3CCC4=CC(=O)CCC4=C3[C@@H](c3ccc(Cl)c(C4CC4)c3)C[C@@]21C
12,< 100 nM,CC#C[C@]1(O)CC[C@H]2[C@@H]3CCC4=CC(=O)CCC4=C3[C@@H](c3cc(F)c(N(C)C)c(F)c3)C[C@@]21C
13,< 100 nM,CC#C[C@]1(O)CC[C@H]2[C@@H]3CCC4=CC(=O)CCC4=C3[C@@H](c3cc(C)c(N(C)C)c(F)c3)C[C@@]21C
14,< 100 nM,CC#C[C@]1(O)CC[C@H]2[C@@H]3CCC4=CC(=O)CCC4=C3[C@@H](c3cc(F)c(OC)c(F)c3)C[C@@]21C
15,> 100 nM,CC#C[C@]1(OC)CC[C@H]2[C@@H]3CCC4=CC(=O)CCC4=C3[C@@H](c3cc(F)c(C)c(F)c3)C[C@@]21C
16,< 100 nM,CC#C[C@]1(O)[C@H](C)C[C@H]2[C@@H]3CCC4=CC(=O)CCC4=C3[C@@H](c3c(F)cc(N4CCOCC4)cc3F)C[C@@]21C
17,< 100 nM,CC#C[C@]1(O)[C@H](C)C[C@H]2[C@@H]3CCC4=CC(=O)CCC4=C3[C@@H](c3c(F)cc(N(C)C)cc3F)C[C@@]21C
18,< 100 nM,CC#C[C@]1(O)[C@H](C)C[C@H]2[C@@H]3CCC4=CC(=O)CCC4=C3[C@@H](c3ccc(C)c(F)c3)C[C@@]21C
19,< 100 nM,CC#C[C@]1(O)[C@H](C)C[C@H]2[C@@H]3CCC4=CC(=O)CCC4=C3[C@@H](c3ccc(S(=O)(=O)N(C)C)cc3)C[C@@]21C
20,< 100 nM,CC#C[C@]1(O)[C@H](C)C[C@H]2[C@@H]3CCC4=CC(=O)CCC4=C3[C@@H](c3c(F)cc(N4CCC4)cc3F)C[C@@]21C
21,< 100 nM,CC#C[C@]1(O)[C@H](C)C[C@H]2[C@@H]3CCC4=CC(=O)CCC4=C3[C@@H](c3cc(F)c(N(C)C)c(F)c3)C[C@@]21C
22,> 100 nM,CC#C[C@]1(O)[C@H](CC)C[C@H]2[C@@H]3CCC4=CC(=O)CCC4=C3[C@@H](c3ccccc3)C[C@@]21C
23,> 100 nM,CC#C[C@]1(O)[C@H](C)C[C@H]2[C@@H]3CCC4=CC(=O)CCC4=C3[C@@H](c3ccc(S(=O)(=O)C(C)(C)C)cc3)C[C@@]21C
24,> 100 nM,CC#C[C@]1(O)[C@H](C)C[C@H]2[C@@H]3CCC4=CC(=O)CCC4=C3[C@@H](c3cc(F)c(C)c(F)c3)C[C@@]21C
25,< 100 nM,CC#C[C@]1(O)CC[C@H]2[C@@H]3CCC4=CC(=O)CCC4=C3[C@@H](c3cccc(C(C)C)c3)C[C@@]21C [drawing 185]
26,< 100 nM,CC#C[C@]1(O)CC[C@H]2[C@@H]3CCC4=CC(=O)CCC4=C3[C@@H](c3ccc(C)c(C)c3)C[C@@]21C [drawing 192]
27,< 100 nM,CC#C[C@]1(O)CC[C@H]2[C@@H]3CCC4=CC(=O)CCC4=C3[C@@H](c3ccc(F)c(C#N)c3)C[C@@]21C [drawing 199]
